For series [1] the following is noted: cited from earlier work; for metabolism in blood: disappearing in the process; for Reaction in Blood Half-life: in vitro.
For series [2] the following is noted: cited from earlier work; for breath AMS and acetone production: after consumption; for time of disappearance from breath: after garlic consumption.
The conditions of series [3]: in vitro, in the presence of cysteine; cited from earlier work.
The conditions of series [4]: after fresh garlic (e.g. 25 g) or pure allicin (60 mg); cited from earlier work.
For the next series, the system named is plaque. In words: Diluted allyl mercaptan poured over the toothbrush bristles (Applicant). Format: in vivo. Conditions: 1/200 in distilled water on toothbrush, a week of use. The source says: Because allyl mercaptan and propyl mercaptan are water soluble, it is easier to experiment with them than with diallyl disulfide or dipropyl disulfide (which are an oils).

The test system of another series is leukemia cell cultures. Conditions: co-administered to reduce glutathione; cited from earlier work.
For the next series, the system named is 13 types of bacteria. Conditions: cited from earlier work.
Series [5] has as its system pro-inflammatory cytokines (e.g. IL-1, TNF-alpha and IL-10). Conditions: cited from earlier work.
Series [6] has as its system cytochrome P-450 enzymes (e.g. CYP2E1) and flavin-containing monooxygenases. Conditions: cited from earlier work.
The subject of another series is plaque, mouth sores. In words: Evaluation of the antimicrobial toothpaste by Applicant and evaluators. The class given is in vivo. Conditions: as active ingredient of experimental toothpastes. How it is done: I decided to next try mixing it with the toothpaste that I normally use by squeezing out the contents of a tube of Arm and Hammer Dental Care Toothpaste into a bowl, mixing in 10 ml (2 teaspoons) of 1/200 diluted allyl mercaptan, and then returning the toothpaste to the tube. […] Mixing with a conventional toothpaste provides an adequate carrier for the allium related compound. More generally, of course, any orally acceptable carrier suitable for application to the teeth may be used. […] This includes the carriers used in commercially available toothpastes, tooth powders, or other dentifrice products.
The resulting toothpaste has no significant “garlic” smell or taste. It left the mouth feeling very clean, so clean that unwaxed dental floss “squeaks” when slid up and down the side of each tooth.
Several friends and acquaintances were willing to try the toothpaste and provide feedback. Under a “Nondisclosure and Produce Evaluation Agreement” I supplied them with free samples to evaluate. The agreement specified that the samples are not for sale, that the inventive aspects of the samples are confidential, and that the samples have no warranty.
A commercial version of the toothpaste (using onion oil as the active ingredient) is now being manufactured under license by Viola Vitalis corporation of Dhaka, Bangladesh (a company that is partially owned by the applicant).

The test system of series [7] is Cu2^+ induced LDL oxidation. Conditions: cited from earlier work.
A further series has as its system NFkB. Conditions: macrophages, cited from earlier work.
Series [8] relates to total glutathione level of cells. Conditions: in vitro administration of SAMC; cited from earlier work.
For another series, the system named is acetaminophen poisoning. Conditions: mice, cited from earlier work.
The conditions of series [9]: during the first hour after consumption; cited from earlier work.
The conditions of series [10]: cited from earlier work.
A further series has as its system trypsin enzyme inhibitor. Conditions: cysteine 2% by weight, soy flour heated at 65 degrees C. for 1 hour; cited from earlier work.
Another series deals with nematodes. Conditions: cited from earlier work.
The next series has as its system E-coli O157:H7. Conditions: cited from earlier work.
Series [11] concerns the target NFkB signal transduction proteins p50 and P65 (Homo sapiens, UniProt P19838+Q04206). Conditions: measured with a nitric oxide probe; cited from earlier work.
The conditions of series [12]: without nitrosothiol formation; cited from earlier work.
A further series concerns glutathione. Conditions: daily dosage of 1000 mg, multiple myeloma patients; cited from earlier work.
A further series deals with liver glutathione level. Conditions: cited from earlier work.

Entries after “also recorded” stand apart in the source; their conditions may differ. Like-named read-outs stand apart in the source and are kept apart here.

With `C=CCSSC=CC[S+]([O-])CC=C` (mixture of isomers) [ajoene], the metabolism in blood entry in [1] was “metabolize directly in blood to allyl mercaptan”. Also, the “breath AMS and acetone production” value in [2] is “produce both breath AMS and acetone”.

As to `C=CCSC` [AMS, allyl methyl sulfide], the “time of disappearance from breath” value in [2] is about 20 h.

As to `C=CCS[S+]([O-])CC=C` (centres unmarked) [Allicin, DiAllylThioSulfinate], the “Reaction with Cysteine Half-life” value in series [3] was under 1 min. Besides, in series [1], the “Reaction in Blood Half-life” value was under 1 min. In addition, the “time for metabolism to allyl mercaptan” value in [1] (red blood cells exposed to allicin) was “less than one minute”. In addition, in series [4], the “detectability in blood, urine, or stool” value was “undetectable”.

For the compound `C=CCS` [AllylSH, AllylThiol], in the series with plaque, the plaque entry was “reduction in plaque”. Also, the “Reaction with Cysteine Half-life” value in [3] is on record as 80 min. In addition, the “time of disappearance from breath” value in [2] was at most 1 h.

As for `CCCCS(=N)(=O)CCC(N)C(=O)O` (centres unmarked) [BSO, buthionine sulfoximine], the “cytotoxicity of chemotherapeutic arsenicals” value with leukemia cell cultures is “increase the cytotoxicity”.

For the compound `O=C(N[C@H](CO)[C@H](O)c1ccc([N+](=O)[O-])cc1)C(Cl)Cl` [Chloramphenicol], in the series with 13 types of bacteria, the “average zone of inhibition” value was 20 mm and the species inhibited is 12/13.

As to `C=CCSSCC=C` [DADS, Diallyl Disulfide], the “expression of pro-inflammatory cytokines” value in series [5] is “inhibit the expression”. Moreover, in series [6], the “activity of the enzymes producing allicin from DADS” value is reported as “up to 121 pmol/min/pmol CYP2D6”. The “conversion of DADS to allicin” value in series [6] (in 30 minutes) is given as “approximately 30%”. The “Reaction with Cysteine Half-life” value in series [3] is recorded as 45 min. In addition, in series [1], the metabolism in blood result is “metabolize directly in blood to allyl mercaptan” and the “Reaction in Blood Half-life” value was 60 min. Also, the “breath AMS and acetone production” value in series [2] is “produce both breath AMS and acetone”.

Turning to `C=CCSCC=C` [DAS], the “breath AMS and acetone production” value in series [2] was “only produces breath acetone”.

For the compound `CCCSSCCC` [DPDS, di-n-propyl disulfide], in series [5], the “expression of pro-inflammatory cytokines” value is “inhibit the expression”. For the same compound, the “performance relative to the allyl mercaptan toothpaste” value in the series on plaque, mouth sores is listed as “performed similarly”.

With `C=CCSC[C@H](NC(C)=O)C(=O)O` [N-acetyl-S-allylcysteine], in series [7], the “effect on Cu2^+ induced LDL oxidation” value is “significantly reduce”.

`N[C@@H](CSN=O)C(=O)O` [S-Nitrosocysteine]: in the series with NFkB (nitric oxide donor), the “donor concentration that nearly completely inhibits the activation of NFkB” value was 1 micro mole.

With `C=CCSC[C@H](N)C(=O)O` [S-allylcysteine], the “effect on Cu2^+ induced LDL oxidation” value in series [7] is on record as “significantly reduce”. In addition, the “breath AMS and acetone production” value in series [2] is reported as “produces no breath AMS or acetone”.

Consider `C=CCSSC[C@H](N)C(=O)O` [SAMC, S-AllylMercaptoCysteine], for which, in series [8], the “total glutathione level of cells” value was “significantly increase; also recorded: significant increases the total glutathione level”. The “protection from acetaminophen poisoning, pretreatment” value in the series on acetaminophen poisoning (pretreatment) is recorded as “protect mice from acetaminophen poisoning”. Also, the “protection from acetaminophen, post treatment” value in the series on acetaminophen poisoning (single dose 200 mg/kg shortly after exposure) is reported as “protective”. In addition, in series [1], the metabolism in blood result is on record as “metabolize directly in blood to allyl mercaptan” and the “Reaction in Blood Half-life” value was 3 min. In addition, the “effect on Cu2^+ induced LDL oxidation” value in series [7] is “significantly reduce”. In [2], the “breath AMS and acetone production” value was “produce both breath AMS and acetone”.

`[AsH3]` [arsenic]: in series [9], the “fraction excreted directly from the liver to the bile” value was about 40%.

Turning to `N[C@@H](CS)C(=O)O` [cysteine, Cysteine], the pKa entry in [10] is recorded as “approximately 8.5”. In addition, the “deactivation of the trypsin enzyme inhibitor” value with trypsin enzyme inhibitor is recorded as “over 90%”.

Consider `C=CCSSSCC=C` [diallyl trisulfide], for which, in series [1], the metabolism in blood entry is recorded as “metabolize directly in blood to allyl mercaptan”. Besides, the “breath AMS and acetone production” value in [2] is “produce both breath AMS and acetone”.

On to `CCCS[S+]([O-])CCC` (centres unmarked) [dipropyl thiosulfinate, Dipropyl Thiosulfinate], for which, in the series on nematodes, the nematicidal activity ranking result is reported as “most effective compound found”.

Turning to `C=CCS[S+](C)[O-]` (centres unmarked) [methyl allyl thiosulfinate], the “effectiveness against E-coli O157:H7” value with E-coli O157:H7 is given as “effective”.

Consider `CS[S+](C)[O-]` (centres unmarked) [methyl methane thiosulfinate, Methyl methanethiosulfinate], for which the “effectiveness against E-coli O157:H7” value with E-coli O157:H7 is “effective”.

`[N]=O` [nitric oxide]: in series [11], the “concentration that inhibited DNA binding activity of p50 and P65” value was 20-100 nano mole. The “half life in circulation” value in [12] is reported as “about 5 seconds”. The “concentration that nearly completely inhibits the activation of NFkB” value in the series with NFkB is “less than 1 micro-mole”.

Consider `O=C1O[C@H]([C@@H](O)CO)C(O)=C1O` [vitamin C, ascorbic acid], for which the “cytotoxicity of chemotherapeutic arsenicals” value in the series with leukemia cell cultures is “increase the cytotoxicity”. Also, the “mean percentage decrease of glutathione” value in the series with glutathione is 60%.

For the compound S-allylcysteine sulfoxide [alliin], the “effect on Cu2^+ induced LDL oxidation” value in series [7] is given as “significantly reduce”.

As to sodium arsenate, the liver glutathione level in the series with liver glutathione level (protein deficient (6%) rats, unexposed controls 74) is recorded as 134 micrograms per gram; in the series with liver glutathione level (well fed rats (18% protein), unexposed controls 88), 123 micrograms per gram.
